Assay results published in patent publication US9289506B2, “Surface binding of nanoparticle based drug delivery to tissue” (Massachusetts Institute of Technology, priority 2013, dated 2016).

Assay: Non-equilibrium diffusive transport across cartilage disks (transport cell)
Assay type: in vitro ADME, bovine
Settings: 400 μm thick disks, 20° C.
Protocol: Real-time measurement of diffusive transport of Avidin and NeutrAvidin through young bovine cartilage disks (with intact superficial zone) was measured using a diffusion chamber consisting of two compartments as described previously (Garcia et al., Arch Biochem Biophys, 2003). Groups of three cartilage disks (6 mm diameter, 400 μm thick) were clamped by O-rings between the two compartments of the diffusion chamber (with total exposed tissue area for transport of 0.28 cm^2/disk), such that solute transport from the upstream compartment into and across the cartilage disks, simultaneously, could occur only from the superficial zone of the cartilage (schematic shown in the inset of FIG. 14). The compartments were treated with casein to prevent non-specific adsorption of solutes to the chamber surfaces. […] Aliquots were taken from each chamber at different time intervals, and fluorescence was measured using a plate reader.
The compartment volume of 25 ml is approximately 1,000× larger than the volume of the cartilage plugs in the configuration of FIG. 14 (inset). […] This configuration thereby focuses on quantitation of steady state solute flux and assessment of effective solute diffusivity within cartilage. […]
[formula] where δ is the thickness of the cartilage disk (˜400 μm). DEFF for Avidin was calculated to be 3.8×10^−7 cm^2/s. […]

With “Avidin: positively charged globular glycosylated tetrameric protein, pI 10.5, 66 kDa, diameter ~7 nm (Invitrogen); SEQ ID NO 1” as the substance, how does the “time lag τlag to achieve the steady state flux” value read?
The value was about 35 min.
